This passage reports aqueous solubility and solubility results from patent EP0280461A2, “Dobutamine salts” (ELI LILLY AND COMPANY, priority 1987, dated 1988).

The data set is described as follows: aqueous solubility at 25°C. Conditions: water. The class given is physicochemical.

Counter-ions that a name gives are not always drawn.

Usually solubility stands for the dissolved amount per volume that the medium holds. Read a low solubility as a poorly soluble substance.

For the compound `CC(CCc1ccc(O)cc1)NCCc1ccc(O)c(O)c1` (stereo not shown) [dobutamine hydrobromide], the aqueous solubility result (room temperature (25°C), hydrobromide) was “about 28 mg per ml of water”. In the case of `CC(CCc1ccc(O)cc1)NCCc1ccc(O)c(O)c1` (racemic) [Dobutamine phosphate dibasic, dobutamine phosphate dibasic], where the note is “room temperature (25°C)”, the solubility is roughly 25 mg/mL. `CC(CCc1ccc(O)cc1)NCCc1ccc(O)c(O)c1` (stereo not shown) [dobutamine hydrochloride]: the solubility (room temperature (25°C)) is 28 mg/mL. As for `CC(CCc1ccc(O)cc1)NCCc1ccc(O)c(O)c1` (racemic) [dobutamine phosphate monobasic], for the setting “at 25°C”, the solubility was roughly 2000 mg/mL.
